Test results reported in PubChem BioAssay AID248 (DTP/NCI, 2004).
Values joined by “and” are separate entries in the source; they are usually repeats but may differ in a detail not shown here. Identical values can stand only once. Inconclusive results and toxic doses are left out. No stated cut-off is given here; in the data, active means T/C of 150% or more; inactive means T/C below 125%.

System: L1210 leukemia ip in BDF1 mice, survival T/C
Assay: NCI In Vivo Anticancer Drug Screen. Data for tumor model L1210 Leukemia (intraperitoneal) in B6D2F1 (BDF1) mice
Conditions: endpoint: mean survival time, higher = longer survival
How it was run: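 Transplantable tumor model; survival measured in treated vs vehicle control mice. Value = treated/control.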

[1] = dose: 50.0 mg/kg/injection, schedule: Q01DX009 (ip), vehicle: saline
[2] = dose: 100.0 mg/kg/injection, schedule: Q01DX009 (ip), vehicle: saline
[3] = dose: 200.0 mg/kg/injection, schedule: Q01DX009 (ip), vehicle: saline
[4] = dose: 100.0 mg/kg/injection, schedule: Q01DX009 (ip), vehicle: saline with Tween-80
[5] = dose: 100.0 mg/kg/injection, schedule: Q04DX003 (ip), vehicle: saline with Tween-80
[6] = dose: 200.0 mg/kg/injection, schedule: Q01DX009 (ip), vehicle: saline with Tween-80
[7] = dose: 200.0 mg/kg/injection, schedule: Q04DX003 (ip), vehicle: saline with Tween-80
[8] = dose: 400.0 mg/kg/injection, schedule: Q04DX003 (ip), vehicle: saline with Tween-80
[9] = dose: 50.0 mg/kg/injection, schedule: Q01DX001 (ip), vehicle: saline
[10] = dose: 100.0 mg/kg/injection, schedule: Q01DX001 (ip), vehicle: saline
[11] = dose: 100.0 mg/kg/injection, schedule: Q04DX003 (ip), vehicle: Klucel (hydroxypropylcellulose) (HPC)
[12] = dose: 200.0 mg/kg/injection, schedule: Q04DX003 (ip), vehicle: Klucel (hydroxypropylcellulose) (HPC)
[13] = dose: 400.0 mg/kg/injection, schedule: Q04DX003 (ip), vehicle: Klucel (hydroxypropylcellulose) (HPC)
[14] = dose: 100.0 mg/kg/injection, schedule: Q01DX001 (ip), vehicle: carboxymethylcellulose (CMC)
[15] = dose: 200.0 mg/kg/injection, schedule: Q01DX001 (ip), vehicle: carboxymethylcellulose (CMC)
[16] = dose: 25.0 mg/kg/injection, schedule: Q01DX009 (ip), vehicle: Klucel (hydroxypropylcellulose) (HPC)
[17] = dose: 50.0 mg/kg/injection, schedule: Q01DX009 (ip), vehicle: Klucel (hydroxypropylcellulose) (HPC)
[18] = dose: 100.0 mg/kg/injection, schedule: Q01DX009 (ip), vehicle: Klucel (hydroxypropylcellulose) (HPC)
[19] = dose: 100.0 mg/kg/injection, schedule: Q01DX001 (ip), vehicle: saline with Tween-80
[20] = dose: 200.0 mg/kg/injection, schedule: Q01DX001 (ip), vehicle: saline with Tween-80
[21] = dose: 400.0 mg/kg/injection, schedule: Q01DX001 (ip), vehicle: saline with Tween-80
[22] = dose: 200.0 mg/kg/injection, schedule: Q01DX001 (ip), vehicle: saline
[23] = dose: 400.0 mg/kg/injection, schedule: Q01DX001 (ip), vehicle: saline
[24] = dose: 100.0 mg/kg/injection, schedule: Q04DX003 (ip), vehicle: saline

Measured: T/C

Cc1ccc(C(C)C)c(OCC2=NCCN2C)c1
inactive: [1] 100 % of control | [2] 98 % of control | [3] 115 % of control

CN1C(=O)C2CCCN2C(=O)C1(C)O (stereo not drawn)
inactive: dose: 100.0 mg/kg/injection, schedule: Q04DX002 (ip), vehicle: saline 90 % of control | dose: 200.0 mg/kg/injection, schedule: Q04DX002 (ip), vehicle: saline 97 % of control | dose: 400.0 mg/kg/injection, schedule: Q04DX002 (ip), vehicle: saline 97 % of control

C=C(C)CNc1ccccc1
inactive: [4] 95 % of control | [5] 97 % of control | [6] 93 % of control | [7] 97 % of control | [8] 103 % of control

CCCc1nc2ccccc2c(=O)n1/N=C/c1ccsc1
inactive: dose: 100.0 mg/kg/injection, schedule: Q04DX003 (ip), vehicle: saline sonified 101 % of control | dose: 200.0 mg/kg/injection, schedule: Q04DX003 (ip), vehicle: saline sonified 94 % of control | dose: 400.0 mg/kg/injection, schedule: Q04DX003 (ip), vehicle: saline sonified 94 % of control

O=c1oc2ccc3ccccc3c2cc1-c1nc2ccccc2[nH]1
inactive: dose: 100.0 mg/kg/injection, schedule: Q04DX002 (ip), vehicle: Klucel (hydroxypropylcellulose) (HPC) 95 % of control | dose: 200.0 mg/kg/injection, schedule: Q04DX002 (ip), vehicle: Klucel (hydroxypropylcellulose) (HPC) 91 % of control | dose: 400.0 mg/kg/injection, schedule: Q04DX002 (ip), vehicle: Klucel (hydroxypropylcellulose) (HPC) 110 % of control

CC(NN)c1ccccc1 (stereo not drawn)
inactive: [9] 101 % of control | [10] 105 % of control

Oc1ccc(C(=S)N2CCOCC2)cc1
inactive: [11] 97 % of control | [12] 97 % of control | [13] 98 % of control

O=C1/C(=N/O)CCc2ccccc21
inactive: [1] 102 % of control | [14] 103 % of control | [2] 103 % of control | [15] 97 % of control

O=C(Nc1ccc(Cl)cc1)c1cccnc1
inactive: [4] 95 % of control | [5] 96 % of control | [6] 97 % of control | [7] 98 % of control | [8] 91 % of control

COc1ccc(C)cc1NC(=S)NC(=O)C(C)Oc1ccccc1 (stereo not drawn)
inactive: [16] 95 % of control | [17] 93 % of control | [18] 101 % of control and 91 % of control | [11] 97 % of control | [12] 103 % of control | [13] 97 % of control

CC(C)P(=S)(OCc1ccccc1)C(C)C
inactive: [19] 99 % of control | [20] 98 % of control | [21] 105 % of control

O=C(c1ccccc1)N(c1ccccc1)c1ccccc1
inactive: dose: 50.0 mg/kg/injection, schedule: Q01DX001 (ip), vehicle: carboxymethylcellulose (CMC) 107 % of control | [14] 101 % of control | [15] 107 % of control | dose: 400.0 mg/kg/injection, schedule: Q01DX001 (ip), vehicle: carboxymethylcellulose (CMC) 103 % of control

CCCSc1ncnc2c1nc(C)n2CO
inactive: [10] 114 % of control | [22] 114 % of control | [23] 121 % of control

Nc1ccc(N=Nc2ccc(C(=O)Nc3ccc4cc(S(=O)(=O)O)ccc4c3)cc2)c(N)c1N=Nc1ccc(N=Nc2ccc(O)c(C(=O)O)c2)cc1
inactive: dose: 25.0 mg/kg/injection, schedule: Q01DX001 (ip), vehicle: saline 94 % of control | dose: 25.0 mg/kg/injection, schedule: Q01DX009 (ip), vehicle: saline 105 % of control | dose: 25.0 mg/kg/injection, schedule: Q04DX003 (ip), vehicle: saline 109 % of control | [9] 90 % of control | [1] 94 % of control | dose: 50.0 mg/kg/injection, schedule: Q04DX003 (ip), vehicle: saline 95 % of control | [10] 97 % of control | [2] 87 % of control | [24] 102 % of control

O=C(CCl)NC1=C(N2CC2)C(=O)c2ccccc2C1=O
inactive: dose: 50.0 mg/kg/injection, schedule: Q04DX003 (ip), vehicle: Klucel (hydroxypropylcellulose) (HPC) 93 % of control | [11] 91 % of control

NNC(=O)CCc1ccccc1[N+](=O)[O-]
inactive: dose: 40.0 mg/kg/injection, schedule: Q04DX003 (ip), vehicle: saline 108 % of control | dose: 75.0 mg/kg/injection, schedule: Q01DX001 (ip), vehicle: saline 93 % of control | dose: 75.0 mg/kg/injection, schedule: Q04DX003 (ip), vehicle: saline 98 % of control | dose: 150.0 mg/kg/injection, schedule: Q01DX001 (ip), vehicle: saline 96 % of control | dose: 150.0 mg/kg/injection, schedule: Q04DX003 (ip), vehicle: saline 101 % of control

CCOC(=O)CCC(NC(=O)c1cnc(N)s1)C(=O)OCC (stereo not drawn)
inactive: dose: 44.0 mg/kg/injection, schedule: Q01DX001 (ip), vehicle: saline with Tween-80 97 % of control | dose: 66.0 mg/kg/injection, schedule: Q01DX001 (ip), vehicle: saline with Tween-80 97 % of control | [19] 97 % of control | dose: 150.0 mg/kg/injection, schedule: Q01DX001 (ip), vehicle: saline with Tween-80 101 % of control | [20] 93 % of control | [21] 102 % of control

CCCCCCCCCCCCCCCCCC[n+]1ccc(C(N)=O)cc1
inactive: [24] 91 % of control

O=C1CCC(c2ccccc2)=NN1c1ccccc1
inactive: [18] 96 % of control | dose: 200.0 mg/kg/injection, schedule: Q01DX009 (ip), vehicle: Klucel (hydroxypropylcellulose) (HPC) 90 % of control | dose: 400.0 mg/kg/injection, schedule: Q01DX009 (ip), vehicle: Klucel (hydroxypropylcellulose) (HPC) 96 % of control

CCOC(=O)c1cc(N)c[nH]1
inactive: [1] 109 % of control | [2] 96 % of control | [24] 89 % of control | [3] 96 % of control | dose: 200.0 mg/kg/injection, schedule: Q04DX003 (ip), vehicle: saline 94 % of control

CC(=O)OCC(C)(COC(C)=O)[N+](=O)[O-]
inactive: [11] 95 % of control | [12] 92 % of control | [13] 97 % of control

Clc1ccc(NC2=NCCCS2)c2ccccc12
inactive: [16] 98 % of control | [17] 102 % of control | [18] 94 % of control and 92 % of control | [11] 97 % of control | [12] 90 % of control

O=C1Nc2ccccc2C1=Nc1ccc(F)cc1
inactive: [10] 96 % of control | [22] 92 % of control | [23] 94 % of control

CC(=O)[O][Pb]([O]C(C)=O)([O]C(C)=O)[c]1ccccc1
inactive: dose: 6.25 mg/kg/injection, schedule: Q01DX009 (ip), vehicle: gum acacia 102 % of control | dose: 12.5 mg/kg/injection, schedule: Q01DX009 (ip), vehicle: gum acacia 98 % of control | dose: 25.0 mg/kg/injection, schedule: Q01DX009 (ip), vehicle: gum acacia 95 % of control | dose: 50.0 mg/kg/injection, schedule: Q01DX009 (ip), vehicle: gum acacia 103 % of control | [10] 97 % of control | dose: 100.0 mg/kg/injection, schedule: Q04DX002 (ip), vehicle: gum acacia 107 % of control | [22] 103 % of control | dose: 200.0 mg/kg/injection, schedule: Q04DX002 (ip), vehicle: gum acacia 103 % of control

CCOP(N)(=O)SC (stereo not drawn)
inactive: dose: 5.0 mg/kg/injection, schedule: Q01DX001 (ip), vehicle: saline 101 % of control
